According to patent US7521454B2 (Dainippon Sumitomo Pharma Co., Ltd., priority 2001, dated 2009):

Key:
[1] = tested on: Balb/c male mouse; assay: Interferon-inducing activity in mouse (in vivo), serum interferon titer after oral dosing; conditions: serum 2 h after dosing, Balb/c mouse
[2] = tested on: OV2944-HM-1 cells; assay: Antitumor effect in mouse model of spontaneous metastasis (OV2944-HM-1); format: in vivo; conditions: 35 days after transplantation, Example 27 3 mg/kg oral, mIFN-α 5×10^4 U intradermal
Description: OV2944-HM-1 cells (obtained from Hiroshima University) derived from mouse ovarian cancer that is highly metastatic to the lymph nodes were intradermally transplanted to the buttocks of 6-week-old B6C3F1 female mice (Charles River Japan, Inc.) in amounts of 1×10^6 cells/0.05 ml/mouse. Ten days after the transplantation, the primary tumor was excised under Nembutal anaesthesia. Adhesives (Aron Alpha) were applied to the excised portions, and the stumps were sewed up with wound clips. The next day, body weights were measured, and they were divided into 3 groups (each group comprising 6 mice) in such a manner that the average body weights among groups were substantially the same. Vehicles (aqueous solutions of 0.5% CMC-Na) and the compound of Example 27 (3 mg/kg) were forcibly administered orally using an oral Sonde (10 ml/kg). Also, 5×10^4 U/0.1 ml/mouse of mIFN-α was intradermally administered through their backs. Administration was carried out 5 times every 4 days. Regional lymph nodes (mouse cervical, brachium, axillary cavity) were extirpated 35 days after the transplantation, and their wet weights were measured. Simultaneously, lungs were extirpated to visually inspect the metastasis. Also, significant difference was examined in accordance with Steel's multiple comparison. The SAS system for Windows Release 8.01 (SAS Institute Inc., Cary, N.C., U.S.A.) was used for the examination.
Thus, pulmonary metastasis was examined.

CCCCNc1nc(N)c2nc(O)n(Cc3ccc(C)nc3)c2n1 [Example 27, 2-Butylamino-8-hydroxy-9-(6-methyl-3-pyridylmethyl)adenine] gave an Interferon-inducing activity ([1]; dosage 0.03 mg/kg oral) of 14 ± 3 U/ml, an Interferon-inducing activity ([1]; dosage 0.1 mg/kg oral) of 324 ± 66 U/ml and an Interferon-inducing activity ([1]; dosage 0.3 mg/kg oral) of 804 ± 274 U/ml. For the same molecule, the “pulmonary metastasis (visual inspection), in words” value [2] was “not observed at all”, the “lymph node metastasis (wet weight of metastasis lymph nodes vs vehicle group)” value ([2]; B6C3F1 mice, 5 times every 4 days) was “smaller than those attained from the group to which vehicles were administered” and the “The number of mice which exhibited pulmonary metastasis in 6 mice” value ([2]; visual inspection) was 0.
